{
  "source": "patent US8906885B2",
  "about": "“Treating cancer with HSP90 inhibitory compounds” (Synta Pharmaceuticals Corp., priority 2011, dated 2014)",
  "key": {"[1]": {"tested_on": "NB-39-nu neuroblastoma cell line", "test": "NB-39-nu neuroblastoma cell viability", "settings": "for effect in combination with ganetespib: NB-39-nu cells"}, "H3122 NSCLC cells": {"tested_on": "H3122 NSCLC cells", "test": "H3122 cell viability, Cell Titer Glo, 72 h", "format": "cell-based", "settings": "for IC50: Homo sapiens, NCI-H3122, read-out: cytotoxic potency", "experimental": "H3122 cells were seeded in 96 well plates at a density of 7500 cells per well.\nTwenty-four hours after plating, cells were dosed with graded concentrations of drug or vehicle for 72 hours. Viability was measured by the Cell Titer Glo assay (Promega).\n(§1) Then, criztoinib was added to a final concentration of 1 μM. […] Viability was measured by Cell Titer Glo assay (Promega) (FIG. 5)"}, "H3122 xenografts [2]": {"tested_on": "H3122 xenografts", "test": "Sequential treatment of H3122 xenografts progressing on ganetespib", "format": "in vivo, mouse", "settings": "after 26 days of ganetespib"}, "H3122 xenografts [3]": {"tested_on": "H3122 xenografts", "test": "Survival of animals bearing H3122 xenografts", "format": "in vivo, mouse"}, "EML4-ALK positive NSCLC": {"tested_on": "EML4-ALK positive NSCLC", "test": "Case study, crizotinib refractory EML4-ALK positive NSCLC patient", "format": "in vivo, human", "settings": "after three weeks of once-weekly injections; patient with resistance mutation to crizotinib", "from_the_text": "FIG. 2 depicts lung photographs of a person with NSCLC, who was diagnosed, and treated with pemetrexed/cisplatinum with pemetrexed maintenance for thirteen months. […] The picture on the left was taken on before commencing treatment with ganetespib. Treatment of ganetespib was initiated nine days later. The picture on the right was taken thirty-one days after the picture on the left.\nThe picture on the left was taken on before commencing treatment with ganetespib. Treatment of ganetespib was initiated nine days later."}, "H3122 xenografts [4]": {"tested_on": "H3122 xenografts", "experimental": "Tumor volume was measured twice weekly to assess the level of growth inhibition.\nAs for in vivo xenograft tumor models, female BALB/c, immunodeficient BALB/c nude and CB-17/Icr-Prkdcscid/Crl (SCID) mice (Charles River Laboratories, Wilmington, Mass.) at 7-12 weeks of age were maintained in a pathogen-free environment and all in vivo procedures were approved by the Synta Pharmaceuticals Corp. Statistical analyses were performed using a Kruskal-Wallace one-way ANOVA on ranks followed by the Tukey test. […]"}, "[5]": {"tested_on": "crizotinib resistant H3122 cells", "test": "Viability of crizotinib resistant H3122 cells", "format": "cell-based", "experimental": "as §1"}, "ALK+ NSCLC": {"tested_on": "ALK+ NSCLC", "test": "Phase 2 NSCLC trial, patients tested for ALK translocation or rearrangement (ALK+)", "format": "in vivo, human", "settings": "eight ALK+ patients; monotherapy once-weekly 200 mg/m^2", "from_the_text": "FIG. 1 is a waterfall diagram showing the best percentage changes in size of target lesions responses according to ALK status after treatment with ganetespib. The y axis represents the percentage tumor volume change from baseline. […] A subject was considered to be ALK+ if a mutation in ALK was detected using any of the methods.\nOf 23 patients in a Phase 2 trial tested for ALK translocation or rearrangement (ALK+), eight patients were ALK+ in at least one assay. […] The disease control rate in this population was ⅞ (88%), and the objective response rate (CR+PR) was 4/8 (50%).\nThis Phase 2 NSCLC trial was designed to enroll patients with advanced, metastatic disease (Stage IIIB and IV) who had failed prior therapy. Patients were grouped into one of three cohorts based on the genetic profile of their cancer—(A) EGFR mutation, (B) KRAS mutation, (C) neither EGFR nor KRAS mutation—and were treated with Compound 1, as a monotherapy, once-weekly at a dose of 200 mg/m^2. Based on initial encouraging signs of activity, the trial was expanded with two additional patient cohorts, including a cohort which allowed for combination treatment with ganetespib and docetaxel."}, "[6]": {"tested_on": "crizotinib resistant H2228 cells", "test": "Viability of crizotinib resistant H2228 cells", "format": "cell-based"}, "NPM-ALK/BaF3 cells": {"tested_on": "NPM-ALK/BaF3 cells", "test": "Cytotoxic IC50 by XTT assay, NPM-ALK/BaF3 cells", "settings": "read-out: cytotoxic IC50; crizotinib-sensitive parental NPM-ALK/BaF3, 72-hr incubation"}, "H2228 NSCLC cells": {"tested_on": "H2228 NSCLC cells", "test": "H2228 cell viability", "format": "cell-based"}, "EML4-ALK [7]": {"tested_on": "EML4-ALK", "test": "Pharmacodynamic analysis in H3122 xenografts (western blot)"}, "EML4-ALK [8]": {"target": "T1, EML4-ALK (Homo sapiens, UniProt Q9UM73)", "T1 construct": "the breakpoint of ALK occurs consistently at exon 20, 5′ of the kinase domain; EML4 N-terminal portion (through exon 13); endogenous in cells; host or cells: H3122 NSCLC cells; the other entry of the earlier key: EML4 (Q9HC35, Echinoderm microtubule-associated protein-like 4)", "T1 sequence (Q9UM73 with tags, fused parts or gaps)": "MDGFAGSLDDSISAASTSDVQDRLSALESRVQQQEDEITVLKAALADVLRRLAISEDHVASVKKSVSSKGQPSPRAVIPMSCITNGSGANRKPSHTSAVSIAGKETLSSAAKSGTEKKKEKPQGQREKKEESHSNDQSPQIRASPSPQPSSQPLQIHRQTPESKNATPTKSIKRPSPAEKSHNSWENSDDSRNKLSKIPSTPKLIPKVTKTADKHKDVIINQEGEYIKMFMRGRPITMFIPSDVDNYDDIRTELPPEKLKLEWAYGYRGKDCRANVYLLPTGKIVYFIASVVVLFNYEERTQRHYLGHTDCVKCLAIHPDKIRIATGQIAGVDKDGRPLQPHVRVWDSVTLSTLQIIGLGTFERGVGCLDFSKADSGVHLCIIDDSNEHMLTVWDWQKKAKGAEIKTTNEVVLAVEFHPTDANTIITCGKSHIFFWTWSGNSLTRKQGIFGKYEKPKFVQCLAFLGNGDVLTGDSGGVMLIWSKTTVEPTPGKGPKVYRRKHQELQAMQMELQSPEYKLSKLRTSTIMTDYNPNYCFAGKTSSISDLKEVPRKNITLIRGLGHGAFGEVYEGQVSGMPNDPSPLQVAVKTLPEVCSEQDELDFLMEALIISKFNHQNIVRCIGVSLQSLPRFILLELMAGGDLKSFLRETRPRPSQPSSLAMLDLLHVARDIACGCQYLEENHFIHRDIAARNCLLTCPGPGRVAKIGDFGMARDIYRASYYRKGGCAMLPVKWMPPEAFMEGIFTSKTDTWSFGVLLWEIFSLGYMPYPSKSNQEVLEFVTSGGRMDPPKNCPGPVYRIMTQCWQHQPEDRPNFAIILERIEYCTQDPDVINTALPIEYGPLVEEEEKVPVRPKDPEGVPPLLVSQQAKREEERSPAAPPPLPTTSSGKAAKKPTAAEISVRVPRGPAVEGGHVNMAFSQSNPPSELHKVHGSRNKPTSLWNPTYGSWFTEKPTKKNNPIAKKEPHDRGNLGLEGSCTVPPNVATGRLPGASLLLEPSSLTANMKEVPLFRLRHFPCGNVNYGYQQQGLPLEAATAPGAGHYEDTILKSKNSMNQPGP", "test": "Western blot of EML4-ALK and signaling proteins in H3122 cells", "format": "cell-based", "experimental": "H3122 cells were plated in 6 well plates at a density of 300,000 cells per well. […] Equivalent amounts of protein were resolved by SDS-PAGE followed by western blot analysis of signaling proteins."}, "[9]": {"tested_on": "crizotinib-resistant NPM-ALK/BaF3 cells", "settings": "all crizotinib-resistant NPM-ALK/BaF3 clones"}, "[10]": {"tested_on": "NPM-ALK and mutant NPM-ALK", "test": "Immunoblotting of NPM-ALK degradation in BaF3 cells", "format": "cell-based", "settings": "wild type and 15 mutant forms"}, "ALK": {"tested_on": "ALK", "test": "ALK degradation and effector signaling in NB-39-nu cells"}},
  "note": "Read-outs that look alike come from different tables or passages of the source.",
  "data": [
    {"compound": "COc1cc(N2CCC(N3CCN(C)CC3)CC2)ccc1Nc1ncc(Cl)c(Nc2ccccc2S(=O)(=O)C(C)C)n1", "note": "[TAE684]", "values": [
      {"measurement": "effect in combination with ganetespib", "setting": "[1]", "value": "enhanced the anticancer actions of ganetespib"}
    ]},
    {"compound": "C[C@@H](Oc1cc(-c2cnn(C3CCNCC3)c2)cnc1N)c1c(Cl)ccc(F)c1Cl", "note": "[crizotinib, reference compound]", "values": [
      {"measurement": "IC50", "setting": "H3122 NSCLC cells; H3122 cells", "value": 156, "unit": "nM"},
      {"measurement": "response of tumors progressing (>20% increase in volume) on ganetespib to subsequent treatment", "setting": "H3122 xenografts [2]", "value": "intermediary response"},
      {"measurement": "effect in combination with ganetespib", "setting": "[1]", "value": "enhanced the anticancer actions of ganetespib"},
      {"measurement": "survival (day at which 50% of animals died)", "setting": "H3122 xenografts [3]; crizotinib 50 mg/kg 5×/wk", "value": 54, "unit": "days"}
    ]},
    {"compound": "CC(C)c1cc(-c2nnc(O)n2-c2ccc3c(ccn3C)c2)c(O)cc1O", "note": "[ganetespib, 3-(2,4-dihydroxy-5-isopropyl-phenyl)-4-(1-methyl-indol-5-yl)-5-hydroxy-[1,2,4] triazole]", "values": [
      {"measurement": "tumor response on lung pictures", "setting": "EML4-ALK positive NSCLC", "value": "visible and significant tumor shrinkage"},
      {"measurement": "T/C value", "setting": "H3122 xenografts [4]; ganetespib 25 mg/kg once weekly", "value": 41, "unit": "%"},
      {"measurement": "T/C value", "setting": "H3122 xenografts [4]; ganetespib 25 mg/kg two consecutive days each week", "value": 10, "unit": "%"},
      {"measurement": "T/C value", "setting": "H3122 xenografts [4]; ganetespib 50 mg/kg i.v. once a week, 3 week period", "value": 21, "unit": "%"},
      {"measurement": "activity in crizotinib resistant cells", "setting": "[5]", "value": "low nanomolar activity equivalent to that observed in the parental population"},
      {"measurement": "potency compared with crizotinib", "setting": "H3122 NSCLC cells; H3122 NSCLC cells", "value": "significantly more potent than crizotinib"},
      {"measurement": "potency relative to crizotinib", "setting": "H3122 NSCLC cells; H3122 cells", "value": "~50", "unit": "times"},
      {"measurement": "potency compared to other anticancer agents (crizotinib, 17-AAG, pemetrexed, BEZ-235, AZD6244)", "setting": "H3122 NSCLC cells; H3122 cells, 72 hours", "value": "2-300 ×"},
      {"measurement": "IC50", "setting": "H3122 NSCLC cells; H3122 cells", "value": 3.2, "unit": "nM"},
      {"measurement": "response of tumors progressing (>20% increase in volume) on ganetespib to subsequent treatment", "setting": "H3122 xenografts [2]", "value": "remained fairly stable"},
      {"measurement": "disease control rate", "setting": "ALK+ NSCLC", "value": 88, "unit": "%"},
      {"measurement": "objective response rate (CR+PR)", "setting": "ALK+ NSCLC", "value": 50, "unit": "%"},
      {"measurement": "patients showing tumor shrinkage in target lesions", "setting": "ALK+ NSCLC", "value": 75, "unit": "%"},
      {"measurement": "activity in crizotinib resistant cells", "setting": "[6]", "value": "low nanomolar activity equivalent to that observed in the parental population"},
      {"measurement": "IC50", "setting": "NPM-ALK/BaF3 cells", "value": 21, "unit": "nM"},
      {"measurement": "potency compared with crizotinib", "setting": "H2228 NSCLC cells", "value": "significantly more potent than crizotinib"},
      {"measurement": "IC50", "setting": "[1]; Neuroblastoma cell, read-out: viability IC50", "value": 10, "unit": "nM"},
      {"measurement": "duration of EML4-ALK depletion and block of oncogenic signaling pathways", "setting": "EML4-ALK [7]; 100 mpk (FIG. 13 legend)", "value": "up to 4 days"},
      {"measurement": "time to degradation of EML4-ALK and deactivation of ERK signaling", "setting": "EML4-ALK [7]; single bolus injection 50 mg/kg", "value": "≤ 24", "unit": "h"},
      {"measurement": "duration of destabilization of fusion kinase and its effectors", "setting": "EML4-ALK [7]; single dose 50 mg/kg", "value": "up to 72 h"},
      {"measurement": "concentration giving complete loss of phosphorylated EML4-ALK", "setting": "EML4-ALK [8]", "value": 30, "unit": "nM"},
      {"measurement": "animals lost on study", "setting": "H3122 xenografts [3]; ganetespib 50 mg/kg 1×/wk, as of day 75", "value": "none of the animals treated with ganetespib had been lost"},
      {"measurement": "IC50 values in crizotinib-resistant clones", "setting": "[9]", "value": "essentially identical to that of NPM-ALK/BaF3"},
      {"measurement": "degradation of ALK", "setting": "[10]", "value": "induced the degradation of wild type and all 15 mutant forms of ALK"},
      {"measurement": "degradation of ALK", "setting": "ALK", "value": "dose-dependent degradation"}
    ]}
  ]
}
